Data as given in patent US6946458B2, “N-thiolated beta-lactams: novel antibacterial agents for methicillin-resistant Staphylococcus aureus” (University of South Florida, priority 1999, dated 2005).

Tests used:
Assay in all cases: Kirby-Bauer agar disk diffusion
Staph aureus 525 = format: cell-based, Staphylococcus aureus; details: Table 4; 20 μg disk loading
MRSA USF653 = format: cell-based, Staphylococcus aureus; details: for Zones of Inhibition: Table 4, 20 μg disk loading; for zone of growth inhibition, average diameter: Table 3, 6-mm disks, 20 μg test compound, 24 hours
Protocol: (§1) In this study, a selection of N-methylthio-substituted β-lactams are examined for antimicrobial activity by the Kirby-Bauer disk diffusion method on agar plates. A variety of common Gram-positive and Gram-negative bacteria are tested, including clinical isolates of methicillin-resistant Staphylococcus aureus (MRSA).
(§2) Compound susceptibility measurements are obtained from agar disk diffusion experiments using 6-mm air-dried disks impregnated with 20 μg of the test compound. The values correspond to the average diameters in mm (triplicate experiments) for the zone of growth inhibition observed after 24 h. Staphylococcus aureus (ATCC 25923) and β-lactamase-producing strains of methicillin-resistant Staphylococcus aureus (labeled as MRSA USF652-659) are obtained from Lakeland Regional Medical Center, Lakeland, Fla. Staphylococcus epidermidis, Staphylococcus simulans, Staphylococcus simulans, and Microcossus luteus are clinical isolates from University of South Florida Medical Clinic. Nieserria gonnorhoeae (β-lactamase positive) is obtained from the Tampa Branch State Laboratory. PenG is penicillin G (potassium salt). Table 1 provides the zones of growth inhibition that are observed after 24 hours using the lactams of FIGS. 1A-1I (designated A-I, respectively).
(§3) Of particular interest is the ability of these compounds to retain their effectiveness against penicillin-resistant strains of Staphylococcus aureus, a dangerous hospital-borne pathogen which is becoming difficult to treat with conventional antibiotic therapy. The lactams were screened for antibacterial activity by disk diffusion on agar plates, and the resulting zones of bacterial growth inhibition measured (see Table 3; each lactam is designated by Figure number).
(§4) Table 3: Growth inhibition zones obtained from agar disk diffusion experiments using 6-mm air-dried disks impregnated with 20 μg of the test compound. The values correspond to the average diameters in mm for the zone of growth inhibition observed after 24 hours. Staphylococcus aureus and β-lactamase-producing strains of methicillin-resistant Staphylococcus aureus (labeled MRSA USF652-659) are obtained from a clinical testing laboratory at Lakeland Regional Medical Center, Lakeland, Fla.
(§5) Those compounds were tested for bioactivity using the Kirby-Bauer test on agar plates.
(§6) Biological activity is enhanced against β-lactamase producing strains of methicillin-resistant Staphylococcus aureus (MRSA). With the lactam shown in FIG. 11A serving as a lead structure, a series of other C-4 substituted derivatives (FIGS. 11B-11I) were investigated herein. Table 5 lists microbiological data for β-lactams from Kirby-Bauer Disc Diffusion Test Results (with each lactam identified by Figure number).
(§7) Scheme I summarizes the synthesis of ester compounds 4. 4-Carboxy benzaldehyde (1) is coupled with the appropriate alcohol using DCC/DMAP, followed by reaction with p-anisidine, to give imines 2. Staudinger coupling of methoxyacetyl chloride with imine 2 gives N-aryl protected β-lactam 3. N-Dearylation of β-lactam 3 with ceric ammonium nitrate and methylthiolation with N-(methylthio)phthalimide affords N-methylthio β-lactams 4. These compounds are tested for antibacterial activity by the Kirby-Bauer method of disc diffusion on agar plates. [drawing 7]

MRSA USF659 = format: cell-based, Staphylococcus aureus; details: for Zones of Inhibition: Table 4, 20 μg disk loading; for zone of growth inhibition, average diameter: Table 3, 6-mm disks, 20 μg test compound, 24 hours
Protocol: as §1, §2, §3, §4, §5, §6, §7

MRSA USF652 = format: cell-based, Staphylococcus aureus; details: for Zones of Inhibition: Table 4, 20 μg disk loading; for zone of growth inhibition, average diameter: Table 3, 6-mm disks, 20 μg test compound, 24 hours
Protocol: as §1, §2, §3, §4, §5, §6, §7

MRSA USF657 = format: cell-based, Staphylococcus aureus; details: for Zones of Inhibition: Table 4, 20 μg disk loading; for zone of growth inhibition, average diameter: Table 3, 6-mm disks, 20 μg test compound, 24 hours
Protocol: as §1, §2, §3, §4, §5, §6, §7

MRSA USF658 = format: cell-based, Staphylococcus aureus; details: for Zones of Inhibition: Table 4, 20 μg disk loading; for zone of growth inhibition, average diameter: Table 3, 6-mm disks, 20 μg test compound, 24 hours
Protocol: as §1, §2, §3, §4, §5, §6, §7

MRSA USF655 = format: cell-based, Staphylococcus aureus; details: for Zones of Inhibition: Table 4, 20 μg disk loading; for zone of growth inhibition, average diameter: Table 3, 6-mm disks, 20 μg test compound, 24 hours
Protocol: as §1, §2, §3, §4, §5, §6, §7

MRSA USF656 = format: cell-based, Staphylococcus aureus; details: for Zones of Inhibition: Table 4, 20 μg disk loading; for zone of growth inhibition, average diameter: Table 3, 6-mm disks, 20 μg test compound, 24 hours
Protocol: as §1, §2, §3, §4, §5, §6, §7

MRSA USF654 = format: cell-based, Staphylococcus aureus; details: for Zones of Inhibition: Table 4, 20 μg disk loading; for zone of growth inhibition, average diameter: Table 3, 6-mm disks, 20 μg test compound, 24 hours
Protocol: as §1, §2, §3, §4, §5, §6, §7

S. simulans (ATCC 11631) = format: cell-based, Staphylococcus simulans; details: Table 3, 6-mm disks, 20 μg test compound, 24 hours
Protocol: as §1, §2, §3, §4

[1] = system: S. saprophyticus (ATCC 3552); format: cell-based, Staphylococcus saprophyticus; details: Table 3, 6-mm disks, 20 μg test compound, 24 hours
Protocol: as §1, §2, §3, §4

[2] = system: Staphylococcus epidermidis; format: cell-based; details: Table 3, 6-mm disks, 20 μg test compound, 24 hours
Protocol: as §1, §2, §3, §4

[3] = system: Staphylococcus aureus (ATCC 25923); format: cell-based; details: Table 3, 6-mm disks, 20 μg test compound, 24 hours
Protocol: as §1, §2, §3, §4

Micrococcus luteus = format: cell-based; details: Table 3, 6-mm disks, 20 μg test compound, 24 hours
Protocol: as §1, §2, §3, §4

SMILES	Zones of Inhibition (Staph aureus 525) [mm]	Zones of Inhibition (MRSA USF653) [mm]	Zones of Inhibition (MRSA USF659) [mm]	Zones of Inhibition (MRSA USF652) [mm]	Zones of Inhibition (MRSA USF657) [mm]	Zones of Inhibition (MRSA USF658) [mm]	Zones of Inhibition (MRSA USF655) [mm]	zone of growth inhibition, average diameter (S. simulans (ATCC 11631)) [mm]	zone of growth inhibition, average diameter [1] [mm]	zone of growth inhibition, average diameter [2] [mm]	zone of growth inhibition, average diameter [3] [mm]	zone of growth inhibition, average diameter (Micrococcus luteus) [mm]	zone of growth inhibition, average diameter (MRSA USF653) [mm]	zone of growth inhibition, average diameter (MRSA USF659) [mm]	zone of growth inhibition, average diameter (MRSA USF652) [mm]	zone of growth inhibition, average diameter (MRSA USF657) [mm]	zone of growth inhibition, average diameter (MRSA USF658) [mm]	zone of growth inhibition, average diameter (MRSA USF655) [mm]	zone of growth inhibition, average diameter (MRSA USF656) [mm]	zone of growth inhibition, average diameter (MRSA USF654) [mm]	further results
CCC(C)SN1C(=O)C(OC)C1c1ccccc1Cl (mixture of isomers) [sec-Butyl]	32	34	33	38	33	35	34	–	–	–	–	–	–	–	–	–	–	–	–	–	Zones of Inhibition (MRSA USF656): 36 mm; Zones of Inhibition (MRSA USF654): 35 mm
CCCCSN1C(=O)C(OC)C1c1ccccc1Cl (racemic) [Butylthio]	25	27	24	26	26	20	23	–	–	–	–	–	–	–	–	–	–	–	–	–	Zones of Inhibition (MRSA USF656): 25 mm; Zones of Inhibition (MRSA USF654): 23 mm
COC1C(=O)N(SC2CCCCC2)C1c1ccccc1Cl (racemic) [Cyclo-hexyl]	21	20	22	25	23	26	22	–	–	–	–	–	–	–	–	–	–	–	–	–	Zones of Inhibition (MRSA USF656): 23 mm; Zones of Inhibition (MRSA USF654): 21 mm
CCSN1C(=O)C(OC)C1c1ccccc1Cl (racemic) [Ethylthio]	26	33	30	33	29	30	28	–	–	–	–	–	–	–	–	–	–	–	–	–	Zones of Inhibition (MRSA USF656): 29 mm; Zones of Inhibition (MRSA USF654): 27 mm
COC1C(=O)N(SC)C1C#Cc1ccccc1 (racemic) [FIG. 2B]	–	–	–	–	–	–	–	19	23	30	27	28	29	24	29	28	27	27	30	27	–
COC1C(=O)N(SC)C1C=Cc1ccccc1 (racemic) [FIG. 3A]	–	–	–	–	–	–	–	–	–	–	–	–	–	–	–	–	–	–	–	–	zone of growth inhibition, average diameter (S. simulans (ATCC 11631); listed as 3A): 9 mm; zone of growth inhibition, average diameter ([1]; listed as 3A): 14 mm; zone of growth inhibition, average diameter ([2]; listed as 3A): 12 mm; zone of growth inhibition, average diameter ([3]; listed as 3A): 10 mm; zone of growth inhibition, average diameter (Micrococcus luteus; listed as 3A): 11 mm; zone of growth inhibition, average diameter (MRSA USF653; listed as 3A): 18 mm; zone of growth inhibition, average diameter (MRSA USF659; listed as 3A): 10 mm; zone of growth inhibition, average diameter (MRSA USF652; listed as 3A): 10 mm; zone of growth inhibition, average diameter (MRSA USF657; listed as 3A): 11 mm; zone of growth inhibition, average diameter (MRSA USF658; listed as 3A): 10 mm; zone of growth inhibition, average diameter (MRSA USF655; listed as 3A): 12 mm; zone of growth inhibition, average diameter (MRSA USF656; listed as 3A): 13 mm; zone of growth inhibition, average diameter (MRSA USF654; listed as 3A): 12 mm
COC1C(=O)N(SC)C1C=Cc1ccccc1 (racemic) [FIG. 3B]	–	–	–	–	–	–	–	–	–	–	–	–	–	–	–	–	–	–	–	–	zone of growth inhibition, average diameter (S. simulans (ATCC 11631); listed as 3B): 12 mm; zone of growth inhibition, average diameter ([1]; listed as 3B): 16 mm; zone of growth inhibition, average diameter ([2]; listed as 3B): 26 mm; zone of growth inhibition, average diameter ([3]; listed as 3B): 21 mm; zone of growth inhibition, average diameter (Micrococcus luteus; listed as 3B): 23 mm; zone of growth inhibition, average diameter (MRSA USF653; listed as 3B): 26 mm; zone of growth inhibition, average diameter (MRSA USF659; listed as 3B): 17 mm; zone of growth inhibition, average diameter (MRSA USF652; listed as 3B): 25 mm; zone of growth inhibition, average diameter (MRSA USF657; listed as 3B): 22 mm; zone of growth inhibition, average diameter (MRSA USF658; listed as 3B): 21 mm; zone of growth inhibition, average diameter (MRSA USF655; listed as 3B): 21 mm; zone of growth inhibition, average diameter (MRSA USF656; listed as 3B): 24 mm; zone of growth inhibition, average diameter (MRSA USF654; listed as 3B): 22 mm
CSN1C(=O)C(OC(C)=O)C1C=Cc1ccccc1 (racemic) [FIG. 3C]	–	–	–	–	–	–	–	10	12	19	15	17	18	15	18	16	16	18	17	16	–
CSN1C(=O)C(Oc2ccccc2)C1C=Cc1ccccc1 (racemic) [FIG. 3D]	–	–	–	–	–	–	–	8	11	10	15	10	16	12	14	13	12	15	13	14	–
COC1C(=O)N(SC)C1CCc1ccccc1 (racemic) [FIG. 3E]	–	–	–	–	–	–	–	9	9	12	16	20	20	15	18	14	15	15	17	17	–
CSN1C(=O)C(OC(C)=O)C1CCc1ccccc1 (racemic) [FIG. 3F]	–	–	–	–	–	–	–	11	13	18	17	23	18	16	17	17	15	15	18	17	–
CSN1C(=O)C(Oc2ccccc2)C1CCc1ccccc1 (racemic) [FIG. 3G]	–	–	–	–	–	–	–	8	10	12	14	17	12	12	14	12	12	11	13	13	–
